Experimental data: patent US7285541B2, “Treatment of melanoma by reduction in clusterin levels” (The University of British Columbia, priority 2002, dated 2007)
e = 2'-O-(2-methoxyethyl) (MOE); d = 2'-deoxy (DNA)

Assays:
607B melanoma cells = experiment: Cell number of 607B melanoma cells measured photometrically using MTS; type: cell-based, human
Description: Lipofectin™ (lip) without oligonucleotide was used as a control. Cells numbers in 96 well plates were measured photometrically using MTS (Cell Titer 96™, […]).

clusterin = experiment: Clusterin expression in human melanoma cells by RT-PCR and western-blot; type: cell-based; settings: as compared to the scrambled mismatch control
Description: Expression of clusterin in two different batches of normal human melanocytes (NHEM 6083 and 2489) and four human melanoma cell lines (518A2, SKMEL-28, Mel-Juso and 607B). Cells were grown in 6 cm dishes and harvested when they were 80-90% confluent. 30 μg of protein per lane was applied onto a 10% SDS-Page gel and probed with a polyclonal goat anti-clusterin antibody. Panceau red stain and an antibody directed against β-actin were used as a loading control. In each case, the antisense inhibitor of clusterin used is based on the advanced antisense chemistry 2′MOE as described in U.S. patent application Ser. No. 10/080,794 and has the sequence of Seq. ID. NO. 4.
FIG. 2 provides a graphic representations of clusterin expression in 518A2 cells after treatment with cisplatin and either an antisense oligonucleotide or a scrambled control. Lip is a Lipofectin control without oligonucleotide. Detection was performed using an antibody directed against clusterin.

human melanoma cells = experiment: Apoptotic cell death of human melanoma cells after antisense treatment; type: cell-based; settings: antisense treatment alone
518A2 cells = experiment: Sensitivity of antisense-treated melanoma cells to consecutive cisplatin treatment; type: cell-based, human; settings: another melanoma cell line (FIG. 2, 518A2), compared to control-mismatch oligonucleotide
bcl-xL = bcl-xL expression in clusterin-expressing melanoma cells (Western blotting); type: cell-based, human
Source text: While chaperone-like function has been proposed for the clusterin protein, the specific molecular mechanism responsible for clusterin's role in apoptosis remains elusive. In the human melanoma cell line that expressed clusterin at a very low levels, over-expression of clusterin by stable transfection not only led to a marked increase in resistance to a cytotoxic treatment (FIG. 3), but led also to an up-regulation of the anti-apoptotic bcl-2 family member bcl-xL as shown by Western blotting. […] Thus, clusterin regulates the anti-apoptotic bcl-2 family member bcl-xL. Such inhibition is significant because bcl-xL is known to act as an inhibitor of apoptosis (See U.S. Pat. No. 6,182,216 which is incorporated herein by reference in those jurisdictions permitting such incorporation).

Mel Juso melanoma cells = experiment: Cell survival of Mel Juso melanoma cells (Neo or clusterin overexpression) in cisplatin, Cell-titer 96; type: cell-based, human; settings: 10 μM cisplatin, clusterin-overexpressing vs empty vector (Neo) Mel Juso cells
Description: Mel Juso melanoma cells stably tranfected with either an empty control vector (Neo) or a vector directing overepression of clusterin were grown in medium containing 10 μM cisplatin. Cell survival was measured using the Cell-titer 96 kits from Promega.

| Molecule | cell death (607B melanoma cells; 607B melanoma cell line, antisense treatment alone) | cell counts (607B melanoma cells; 607B melanoma cells, antisense at 250 and 500 nM on two consecutive days, vs scrambled control 100 nM and Lipofectin) | down-regulation of clusterin on the mRNA level (clusterin; RT-PCR) | down-regulation of clusterin on the protein level (clusterin; western-blot) | apoptotic cell death (human melanoma cells) | sensitivity of surviving cells to consecutive treatment with cisplatin (518A2 cells) | expression of bcl-xL (bcl-xL) | effectiveness of the chemotherapy agent (cell survival) (Mel Juso melanoma cells) |
| --- | --- | --- | --- | --- | --- | --- | --- | --- |
| cagcagcagagtcttcatcat (CAGCAGCAGAGTCTTCATCAT; sugars from the 5' end e4 d13 e4, all phosphorothioate, methylation of C not given here) [MOE modification of Seq. ID. NO. 4] | complete cell death | significantly reduced | dose dependent down-regulation | dose dependent down-regulation | increase in apoptotic cell death | increased sensitivity | marked down-regulation |  |
| N.N.[Cl][Pt][Cl] [cisplatin] |  |  |  |  |  |  |  | reduced the effectiveness |
